Data published in ChEMBL document CHEMBL3351580, “Pyrano-isochromanones as IL-6 inhibitors: synthesis, in vitro and in vivo antiarthritic activity” (J Med Chem, 2014).
Activity calls are given as the source filed them. No cut-off for these calls is given here.

What was measured:
Mus musculus [1] = test: Antiinflammatory activity in BALB/c mouse assessed as serum IL6 level at 100 mg/kg, po qd for 5 days followed by LPS challenge 1 hr after last compound dose on fifth day and measured 4 hrs post LPS challenge by ELISA method (reference value: 410 +/- 95 pg/mL); format: functional
Mus musculus [2] = test: Antiarthritic activity in DBA/1J mouse collagen-induced arthritis model assessed as reduction in anticollagen antibody IgG2a level at 3 to 30 mg/kg, po administered once daily for 49 days starting from onset of disease and measured after 14 days of disease onset by ELISA method; format: functional, organism-based
Mus musculus [3] = test: Antiarthritic activity in DBA/1J mouse collagen-induced arthritis model assessed as reduction in anticollagen antibody IgG1 level at 3 to 30 mg/kg, po administered once daily for 49 days starting from onset of disease and measured after 14 days of disease onset by ELISA method; format: functional, organism-based
Mus musculus [4] = test: Antiinflammatory activity in BALB/c mouse assessed as serum TNFalpha level at 100 mg/kg, po qd for 5 days followed by LPS challenge 1 hr after last compound dose on fifth day and measured 4 hrs post LPS challenge by ELISA method (reference value: 717 +/- 218 pg/mL); format: functional
[5] = Solubility in SIF solution; format: physicochemical
Mus musculus [6] = test: Immunosuppressive activity in BALB/c mouse assessed as reduction in SRBC-induced humoral immunity by measuring IgM level at 3 to 30 mg/kg, po administered once daily for 14 days measured 4 hrs post last dose; format: functional, organism-based
[7] = Solubility in water; format: physicochemical
Mus musculus [8] = test: Antiarthritic activity in BALB/c mouse assessed as reduction in SRBC-induced blood IL4 level administered orally once daily for 14 days measured 4 hrs post last dose by ELISA method; format: functional, organism-based
CYP2C19 = CYP2C19 (Homo sapiens, UniProt P33261); test: Inhibition of CYP2C19 (unknown origin) at 10 uM; format: ADME
Chain of CYP2C19 (P33261 whole entry): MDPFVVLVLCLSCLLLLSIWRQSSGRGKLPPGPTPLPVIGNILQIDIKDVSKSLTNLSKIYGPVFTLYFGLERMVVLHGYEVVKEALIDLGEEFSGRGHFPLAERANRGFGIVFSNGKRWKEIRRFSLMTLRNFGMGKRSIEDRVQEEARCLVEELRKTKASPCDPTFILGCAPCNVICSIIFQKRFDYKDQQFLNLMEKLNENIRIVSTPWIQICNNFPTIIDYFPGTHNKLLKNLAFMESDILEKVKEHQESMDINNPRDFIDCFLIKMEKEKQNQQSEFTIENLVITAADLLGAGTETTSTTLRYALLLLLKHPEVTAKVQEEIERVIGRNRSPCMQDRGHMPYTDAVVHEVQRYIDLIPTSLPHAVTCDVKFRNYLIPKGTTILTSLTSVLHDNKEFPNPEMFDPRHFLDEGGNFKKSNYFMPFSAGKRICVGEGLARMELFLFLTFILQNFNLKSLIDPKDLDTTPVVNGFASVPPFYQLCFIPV

[9] = molecular target: Inhibitor of NF-kappa-B kinase (IKK) (Homo sapiens) (UniProt O14920+O15111+Q9Y6K9); test: Inhibition of IKKbeta expression in human THP1 cells at 20 to 100 uM by Western blotting method; format: functional, cell-based; conditions: THP-1

SMILES: CCN(CC)Cc1c(O)c(OC)c(O)c2c1C(=O)O[C@@H]1[C@@H](O)[C@H](O)[C@@H](CO)O[C@@H]21
- Activity (Mus musculus [1]): 275 pg/mL
- inhibition (Mus musculus [2]): Active
- inhibition (Mus musculus [3]): Active
- Activity (Mus musculus [4]): 388 pg/mL
- solubility [5]: > 1500 µg/mL
- inhibition (Mus musculus [6]): Active
- solubility [7]: > 1500 µg/mL
- inhibition (Mus musculus [8]): Dose-dependent effect
- inhibition at 10 µM (CYP2C19): 6%
- inhibition [9]: Active
